We go through 13 compounds from patent US9284308B2, “Methylene linked quinolinyl modulators of RORγt” (Janssen Pharmaceutica NV, priority 2013, dated 2016).

SMILES strings stand for the structures. Structures can show the parent of a compound that is named as a salt. Bounds are passed on as bounds.

For orientation: IC50 means the concentration at which inhibition is half-maximal. A higher IC50 goes with lower potency. By Kd is commonly meant the constant that tells how readily two partners part at equilibrium. High values mean lower affinity, low ones higher affinity. For orientation: inhibition means the change of the read-out against control, counted positive when it falls.

Test [1] has as its system IL-17 production by CD4 T cells. The test is described as follows: Human Th17 assay. It is filed as cell-based. As to conditions: Homo sapiens, CD4+ T, IL-17 production by human CD4 T cells. The protocol:
The human Th17 assay tests the effect of RORγt modulatory compounds on IL-17 production by CD4 T cells under conditions which favor Th17 differentiation. Total CD4^+ T cells were isolated from the peripheral blood mononuclear cells (PBMC) of healthy donors using a CD4^+ T cell isolation kit II, following the manufacturer's instructions (Miltenyi Biotec). […] 50 μL of compound at titrated concentrations in DMSO were added into each well at final DMSO concentration at 0.2%. Cells were incubated for 1 hour, then 50 μL of Th17 cell differentiation medium was added to each well. The final concentrations of antibodies and cytokines (R&D Systems) in differentiation medium were: 3×10^6/mL anti-CD3/CD28 beads (prepared using human T cell activation/expansion kit, Miltenyi Biotec), 10 μg/mL anti-IL4, 10 μg/mL anti-IFNγ, 10 ng/mL IL1β, 10 ng/mL IL23, 50 ng/mL IL6, 3 ng/mL TGFβ and 20 U/mL IL2. Cells were cultured at 37° C. and 5% CO2 for 3 days. Supernatants were collected and the accumulated IL-17 in culture was measured by using MULTI-SPOT® Cytokine Plate following manufacture's instruction (Meso Scale Discovery). The plate was read using Sector Imager 6000, and IL-17 concentration was extrapolated from the standard curve. The IC50s were determined by GraphPad.

Test [2] deals with T1, human RORγt ligand binding domain (RORγt LBD) (Homo sapiens, UniProt P51449).
T1 construct: His-tag (N); TurboTEV protease cleavage site (ENLYFQG) (N); made in house; host or cells: E. coli (pHIS1, modified pET vector)
T1 sequence (P51449 with tags, fused parts or gaps): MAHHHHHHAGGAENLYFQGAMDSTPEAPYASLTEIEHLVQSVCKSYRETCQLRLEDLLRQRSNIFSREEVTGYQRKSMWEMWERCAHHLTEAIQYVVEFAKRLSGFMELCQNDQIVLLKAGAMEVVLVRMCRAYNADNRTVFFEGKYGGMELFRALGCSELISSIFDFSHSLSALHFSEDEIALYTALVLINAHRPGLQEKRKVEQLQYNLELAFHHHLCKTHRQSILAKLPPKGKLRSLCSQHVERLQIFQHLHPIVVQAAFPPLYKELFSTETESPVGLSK
As to the kind of experiment: RORγt ThermoFluor assay (ligand binding affinity from protein thermal stability). The protocol:
This approach is applicable to a wide variety of systems, and rigorous in theoretical interpretation through quantitation of equilibrium binding constants (KD).
The shift in the melting point described as a ΔTm is proportional to the concentration and affinity of the ligand.
RORγt ThermoFluor® Assay Construct
Protein and compound solutions are dispensed into black 384-well polypropylene PCR microplates (Abgene) and overlayed with silicone oil (1 μL, Fluka, type DC 200) to prevent evaporation.
Bar-coded assay plates are robotically loaded onto a thermostatically controlled PCR-type thermal block and then heated at a typical ramp-rate of 1° C./min for all experiments. Fluorescence was measured by continuous illumination with UV light (Hamamatsu LC6) supplied via fiber optic and filtered through a band-pass filter (380-400 nm; >6 OD cutoff). Fluorescence emission of the entire 384-well plate was detected by measuring light intensity using a CCD camera (Sensys, Roper Scientific) filtered to detect 500±25 nm, resulting in simultaneous and independent readings of all 384 wells. Images were collected at each temperature, and the sum of the pixel intensity in a given area of the assay plate was recorded versus temperature. Reference wells contained RORγt without compounds, and the assay conditions were as follows: • 0.065 mg/mL RORγt • 60 μM 1,8-ANS • 100 mM Hepes, pH 7.0 • 10 mM NaCl • 2.5 mM GSH • 0.002% Tween-20
Project compounds were arranged in a pre-dosed mother plate (Greiner Bio-one) wherein compounds are serially diluted in 100% DMSO by 1:2 from a high concentration of 10 mM over 12 columns within a series (column 12 is a reference well containing DMSO, no compound). The compounds were robotically dispensed directly into assay plates (1×=[…]) using a Hummingbird capillary liquid handling instrument (Digilab). Following compound dispense, protein and dye in buffer was added to achieve the final assay volume of 3 μL, followed by 1 μL of silicone oil.

In another test the target is T2, human RORγt LBD (Homo sapiens, UniProt P51449).
T2 construct: expressed in transfected cells; host or cells: HEK293T
T2 sequence (P51449 258-518): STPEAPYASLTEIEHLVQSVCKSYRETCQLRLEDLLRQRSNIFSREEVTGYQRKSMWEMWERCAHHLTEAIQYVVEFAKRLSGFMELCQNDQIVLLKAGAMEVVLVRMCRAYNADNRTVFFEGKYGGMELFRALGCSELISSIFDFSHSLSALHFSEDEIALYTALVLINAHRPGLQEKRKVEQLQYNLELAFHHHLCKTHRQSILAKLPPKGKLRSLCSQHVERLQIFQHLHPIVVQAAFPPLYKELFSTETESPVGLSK
The test is described as follows: RORγt (LBD) reporter assay in HEK293T cells. It is filed as cell-based. To be noted: for inhibition at 6 µM: HEK-293T, read-out: RORγt (LBD) Reporter Assay, % inhibition @ 6 μM, 6 μM compound. The source says:
RORγt (LBD) Reporter Assay
Cells used in the assay were co-transfected with two constructs. The first construct, pBIND-RORγt LBD, contained the wild type human RORγt LBD fused to the DNA binding domain of the GAL4 protein. The second construct, pGL4.31 (Promega Cat no. C935A), contained multiple GAL4 responsive DNA elements upstream of firefly luciferase. […] The mutant construct was called pBIND-RORγt-AF2.
The pBIND vector contains the GAL4 DNA Binding Domain (GAL4 DBD) and the renilla luciferase gene under control of the SV40 promoter. Renilla luciferase expression serves as a control for transfection efficiency and cell viability.
The reporter assay was performed by transiently transfecting HEK293T cells with 5 μg of pBIND-RORγt LBD or pBIND-RORγt LBD-AF2 and 5 μg pGL4.31 (Promega Cat no. C935A) using Fugene 6 (Invitrogen Cat no. E2691) at a 1:6 ratio of DNA:Fugene 6 in a T-75 flask in which cells were at least 80% confluent. Twenty four hours after bulk transfection, cells were plated into 96-well plates at 50,000 cells/well in phenol-red free DMEM containing 5% Lipid Reduced FCS and Pen/Strep. Six hours after plating, cells were treated with compounds for 24 hours. Media was removed and cells were lysed with 50 μL 1× Glo Lysis Buffer (Promega). Dual Glo Luciferase Reagent (50 μL/well) was then added and firefly luciferase luminescence was read on an Envision after a ten minute incubation. Finally, Stop and Glo reagent (50 μL/well) was added and renilla luciferase luminescence was read on an Envision after a ten minute incubation. […] Agonist compounds increase RORγt-driven luciferase expression, and antagonist or inverse agonist compounds decrease luciferase expression.
A general note: In a reporter assay the amount or activity of a reporter protein is the signal.

Turning to `CCc1nc2ccc(C(O)(c3cnnn3C)c3cnc(C)n3C)cc2c(Cl)c1Cc1ccc(C(F)(F)F)cc1` (single isomer, unassigned) [Example 25b, (4-Chloro-2-ethyl-3-(4-(trifluoromethyl)benzyl)quinolin-6-yl)(1,2-dimethyl-1H-imidazol-5-yl)(1-methyl-1H-1,2,3-triazol-5-yl)methanol], the IC50 in test [1] amounted to 2.1 nM. This counts as single-digit nanomolar.
The compound `COc1nc2ccc(C(N)(c3ccc(C(F)(F)F)nc3)c3cncn3C)cc2c(Cl)c1Cc1ccccc1` (single isomer, unassigned) [Example 120c, (3-Benzyl-4-chloro-2-methoxyquinolin-6-yl)(1-methyl-1H-imidazol-5-yl)(6-(trifluoromethyl)pyridin-3-yl)methanamine•TFA] gave a Kd in test [2] of 1100 nM. The compound also displayed an IC50 against human RORγt LBD of approximately 6000 nM.
The like results for `CNC(c1ccc2nc(OC)c(Cc3ccc(C(F)(F)F)cc3)c(Cl)c2c1)(c1ccc(C)nc1C)c1cnnn1C` (single isomer, unassigned) [Example 121b, 1-(4-Chloro-2-methoxy-3-(4-(trifluoromethyl)benzyl)quinolin-6-yl)-1-(2,6-dimethylpyridin-3-yl)-N-methyl-1-(1-methyl-1H-1,2,3-triazol-5-yl)methanamine•TFA] were, in that order, 370 nM and 410 nM.
For the compound `CNC(c1ccc2nc(OC)c(Cc3ccc(C(F)(F)F)cc3)c(Cl)c2c1)(c1ccc(C)nc1C)c1cnnn1C` (single isomer, unassigned) [Example 121c, 1-(4-Chloro-2-methoxy-3-(4-(trifluoromethyl)benzyl)quinolin-6-yl)-1-(2,6-dimethylpyridin-3-yl)-N-methyl-1-(1-methyl-1H-1,2,3-triazol-5-yl)methanamine•TFA], in test [2], the affinity, expressed as Kd, was 130 nM. At human RORγt LBD, this compound had an IC50 of 220 nM.
The like results for `COc1nc2ccc(C(c3ccc(C)nc3C)(c3cnnn3C)N(C)C)cc2c(Cl)c1Cc1ccc(C(F)(F)F)cc1` (single isomer, unassigned) [Example 122b, 1-(4-Chloro-2-methoxy-3-(4-(trifluoromethyl)benzyl)quinolin-6-yl)-1-(2,6-dimethylpyridin-3-yl)-N,N-dimethyl-1-(1-methyl-1H-1,2,3-triazol-5-yl)methanamine•TFA] were, in that order, more than 83000 nM and 1400 nM.
`COc1nc2ccc(C(c3ccc(C)nc3C)(c3cnnn3C)N(C)C)cc2c(Cl)c1Cc1ccc(C(F)(F)F)cc1` (single isomer, unassigned) [Example 122c, 1-(4-Chloro-2-methoxy-3-(4-(trifluoromethyl)benzyl)quinolin-6-yl)-1-(2,6-dimethylpyridin-3-yl)-N,N-dimethyl-1-(1-methyl-1H-1,2,3-triazol-5-yl)methanamine•TFA] came in with a Kd in test [2] of 2.2 nM. Moreover, the IC50 against human RORγt LBD was 87 nM.
`COc1nc2ccc(C(O)(c3oc(C)nc3C)c3cnnn3C)cc2c(Cl)c1Cc1ccc(C(F)(F)F)cc1` (single isomer, unassigned) [Example 156b, (4-chloro-2-methoxy-3-(4-(trifluoromethyl)benzyl)quinolin-6-yl)(2,4-dimethyloxazol-5-yl)(1-methyl-1H-1,2,3-triazol-5-yl)methanol]: binding in test [2] was characterised by a dissociation constant (Kd) of 75 nM. Further, at human RORγt LBD, half-maximal inhibition (IC50) was put at 87 nM and the inhibition at 6 µM stood at 98%.
Turning to `COc1nc2ccc(C(O)(c3oc(C)nc3C)c3cnnn3C)cc2c(Cl)c1Cc1ccc(C(F)(F)F)cc1` (single isomer, unassigned) [Example 156c, (4-chloro-2-methoxy-3-(4-(trifluoromethyl)benzyl)quinolin-6-yl)(2,4-dimethyloxazol-5-yl)(1-methyl-1H-1,2,3-triazol-5-yl)methanol], binding in test [2] was put at a Kd of 0.59 nM. Also, at human RORγt LBD, half-maximal inhibition (IC50) required 1.9 nM. Moreover, the “RORγt (LBD) Reporter Assay, % inhibition @ 6 μM” value on human RORγt LBD (6 μM compound, 6 µM) stood at 99%.
Consider `COc1nc2ccc(C(O)(c3ccc(C(F)(F)F)cc3)c3cccnc3)cc2c(Cl)c1Cc1ccc(-n2cccn2)cc1` (single isomer, unassigned) [Example 162b], for which, in test [2], the Kd was found to be 16000 nM. Further, at human RORγt LBD, the half-inhibitory concentration (IC50) is 1100 nM and the inhibition at 6 µM was 81%.
The like results for `COc1nc2ccc(C(O)(c3ccc(C)nc3C)c3cnnn3C)cc2c(Cl)c1Cc1ccc(F)cc1` (centres unmarked) [Example 48a, (4-Chloro-3-(4-fluorobenzyl)-2-methoxyquinolin-6-yl)(2,6-dimethylpyridin-3-yl)(1-methyl-1H-1,2,3-triazol-5-yl)methanol] were, in that order, 0.85 nM, 450 nM and 61%.
The like results for `COc1nc2ccc(C(O)(c3ccc(C)nc3C)c3cnnn3C)cc2c(C#N)c1Cc1ccc(F)cc1` (centres unmarked) [Example 49a, 6-((2,6-Dimethylpyridin-3-yl)(hydroxy)(1-methyl-1H-1,2,3-triazol-5-yl)methyl)-3-(4-fluorobenzyl)-2-methoxyquinoline-4-carbonitrile] were, in that order, 1.7 nM, 52 nM and 84%.
The compound `COc1nc2ccc(C(O)(c3ccccn3)c3cncn3C)cc2c(Cl)c1Cc1ccc(C(F)(F)F)cc1` (centres unmarked) [Example 68, (4-Chloro-2-methoxy-3-(4-(trifluoromethyl)benzyl)quinolin-6-yl)(1-methyl-1H-imidazol-5-yl)(pyridin-2-yl)methanol•TFA] showed a Kd in test [2] of 53 nM. Moreover, on human RORγt LBD, half-maximal inhibition (IC50) required 65 nM and the inhibition at 6 µM was found to be 101%.
In turn, `COc1nc2ccc(C(O)(c3ccc(Cl)cc3)c3cncn3C)cc2c(Cl)c1Cc1cccc(C#N)c1` (centres unmarked) [Example 70, 3-((4-Chloro-6-((4-chlorophenyl)(hydroxy)(1-methyl-1H-imidazol-5-yl)methyl)-2-methoxyquinolin-3-yl)methyl)benzonitrile•TFA] showed a Kd in test [2] of 120 nM. Besides, at human RORγt LBD, the IC50 was 430 nM and the inhibition at 6 µM worked out at 94%.
